Assay results from US12673918B2, “Small molecule RPN13 inhibitors with antitumor properties” (The Johns Hopkins University, priority 2019, dated 2026).
Read-outs that look alike come from different tables or passages of the source.

Legend:
[1] = system: MM.1S; experiment: MTT cytotoxicity assay, MM.1S; type: cell-based; details: Homo sapiens, MM1.S, 48 h, read-out: IC50 MM.1S
Procedure: (§1) The cytotoxic efficacy of selected compounds was assessed against multiple myeloma (MM) cell lines, as this is a validated clinical target for the licensed proteasome inhibitors.
(§2) Cell lines and cytotoxicity assays: All cell lines were obtained from the American Type Culture Collection (ATCC) and cultured in the specified medium supplemented with 10% fetal bovine serum, 100 IU/mL penicillin, and 100 μg/mL streptomycin at 37° C. in a humidified 5% CO2/95% air incubator. […] To assess drug cytotoxicity, cells were seeded at 2,500 cells/well (10,000 cells/well for MM lines) in 100 μL medium in 96-well plate and after 24 treated with compounds for 72 h, incubated according to the manufacturer's protocol with the Thiazolyl Blue Tetrazolium Bromide (Sigma, M2128) and A570 measured using a Benchmark Plus microplate spectrophotometer (BIO-RAD). IC50 data was analyzed by Graphpad Prism software.

[2] = system: RPMI8226; experiment: MTT cytotoxicity assay, RPMI8226; type: cell-based; details: Homo sapiens, RPMI-8226, 48 h, read-out: IC50 RPMI8226
Procedure: as §1, §2

[3] = system: ANBL6-V10R; experiment: MTT cytotoxicity assay, ANBL6-V10R; type: cell-based; details: 48 h, read-out: IC50 ANBL6-V10R
Procedure: as §1, §2

[4] = system: polyubiquitinated proteins; experiment: Western blot of polyubiquitinated proteins, SKOV3 cells; type: cell-based, human; details: 4 h
Procedure: FIG. 14A illustrates SKOV3 cells treated with compounds for 4 h and analyzed by Western blot analysis with antibody to ubiquitin.
Antibodies, reagents, and Western Blot Analyses: Cell lysate (10-20 μg total protein) prepared in MPER (Pierce) from each sample was subjected to SDS-PAGE, transferred to PVDF membranes and analyzed by Western blot using antibodies specific Bax (#2772, Cell Signaling), ubiquitin (P4D1, sc-8017, Santa Cruz), PARP (#9542, BD Pharmingen), actin (#66009, Protein Tech Group), Tubulin(#66031, Protein Tech Group), ADRM1/Rpn13 (D9Z1U, #12019, Cell Signaling), Lys48-linkled ubiquitin (Apu 2, 05-1307, (Millipore), Annexin V (#559763, BD pharmingen), caspase-3 (51-68655X, BD Pharmingen) at the dilutions recommended by the manufacturers, and for secondary antibodies either peroxidase-linked anti-mouse IgG or anti-rabbit IgG (GE Healthcare UK Ltd) were utilized, HRP conjugated streptavidin (N100, Thermo Fisher) at the recommended dilution (1:5000). MitoTracker Red CMXRos reagent was purchased from ThermoFisher #M7512. The blots were developed using HyGLO chemiluminescent detection reagent (Denville).

[5] = system: intracellular ATP; experiment: Luciferase-based ATP measurement, ES2 cells; type: cell-based, human; details: luciferase expressing ES2 cells, 4 hr, sublethal doses
Procedure: Briefly, firefly luciferase expressing ES2 cells were treated for 4 hr with compounds at sublethal doses and the bioluminescence was measured in intact cells using luminometer by adding luciferin. […] This is associated with enhanced glycolysis while bortezomib suppresses oxidative phosphorylation (OXPHOS) (66).
ATP measurement assay: To measure ATP levels in cells, luciferase based bioluminescence assay was performed. Briefly cells stably expressing firefly luciferase plated in a 6 well plate (250,000 cells/well) in growth medium. After 24 h incubation, cells were treated with compounds at indicated concentrations for the period of 4 h and the bioluminescence was measured by IVIS 200 imager in intact cells by adding luciferin substrate to the growth medium. Cell viability was assessed in parallel using an MTT assay.

[6] = system: ES2; experiment: MTT cytotoxicity assay, ES2
[7] = system: SiHa; experiment: MTT cytotoxicity assay, SiHa
[8] = system: KLE; experiment: MTT cytotoxicity assay, KLE; details: read-out: cytotoxicity IC50 KLE, Tables 3A/4B/4C
[9] = system: CaSki; experiment: MTT cytotoxicity assay, CaSki
[10] = system: SKOV3; experiment: MTT cytotoxicity assay, SKOV3; details: Homo sapiens
[11] = system: A2780; experiment: MTT cytotoxicity assay, A2780
[12] = system: LNCaP; experiment: MTT cytotoxicity assay, LNCaP; details: Homo sapiens
[13] = system: TOV21G; experiment: MTT cytotoxicity assay, TOV21G
[14] = system: HCT116; experiment: MTT cytotoxicity assay, HCT116
[15] = system: HS578T; experiment: MTT cytotoxicity assay, HS578T
[16] = system: HEC-1A; experiment: MTT cytotoxicity assay, HEC-1A; details: read-out: cytotoxicity IC50 HEC-1A, Tables 3A/4B/4C

## N[C@@H](Cc1ccccc1)C(=O)N1C/C(=C\c2ccc([N+](=O)[O-])cc2)C(=O)/C(=C/c2ccc([N+](=O)[O-])cc2)C1 [RA183, reference compound]
[1]
  IC50: 46 nM
[2]
  IC50: 88 nM
[3]
  IC50: 103 nM
[4]
  accumulation of polyubiquitinated proteins: enhanced the accumulation of polyubiquitinated proteins
[5]
  ATP-dependent bioluminescence (intracellular ATP levels): reduced bioluminescence
[6]; read-out: IC50 ES2, Table 3, MTT, 48 hr, Ovarian
  IC50: 75 nM
[6]; read-out: cytotoxicity IC50 ES2, Tables 3A/4B/4C, MTT assay
  IC50: 75 nM
[7]; read-out: IC50 SiHa, Table 3, MTT, 48 hr, Cervical (HPV +ve)
  IC50: 263 nM
[7]; read-out: cytotoxicity IC50 SiHa, Tables 3A/4B/4C, MTT assay
  IC50: 263 nM
[8]
  IC50: 989 nM
[9]; read-out: IC50 CaSki, Table 3, MTT, 48 hr, Cervical (HPV +ve)
  IC50: 312 nM
[9]; read-out: cytotoxicity IC50 CasKi, Tables 3A/4B/4C, MTT assay
  IC50: 312 nM
[10]; SK-OV-3, 48 h, read-out: IC50 SKOV3
  IC50: 54 nM
[10]; SK-OV-3, read-out: cytotoxicity IC50 SKOV3
  IC50: 54 nM
[11]; read-out: IC50 A2780, Table 3, MTT, 48 hr, Ovarian
  IC50: 161 nM
[11]; read-out: cytotoxicity IC50 A2780, Tables 3A/4B/4C, MTT assay
  IC50: 161 nM
[12]; 48 h, read-out: IC50 LNCaP
  IC50: 186 nM
[12]; read-out: cytotoxicity IC50 LNCAP
  IC50: 186 nM
[13]; read-out: IC50 TOV21G, Table 3, MTT, 48 hr, Ovarian
  IC50: 44 nM
[13]; read-out: cytotoxicity IC50 TOV21G, Tables 3A/4B/4C, MTT assay
  IC50: 53 nM
[14]; read-out: IC50 HCT116, Table 3, MTT, 48 hr, Colon
  IC50: 193 nM
[14]; read-out: cytotoxicity IC50 HCT116, Tables 3A/4B/4C, MTT assay
  IC50: 193 nM
[15]; read-out: IC50 HS578T, Table 3, MTT, 48 hr, Triple Negative Breast
  IC50: 89 nM
[15]; read-out: cytotoxicity IC50 HS578T, Tables 3A/4B/4C, MTT assay
  IC50: 89 nM
[16]
  IC50: 378 nM
